# In patent US9623125B2, “Controlled synthesis of polyglutamates with low polydispersity and versatile architectures” (Fundacion de la Comunidad Valenciana “Centro De …, priority 2011, dated 2017):
# Assay: Stability of NCA under different storage conditions
# Type: physicochemical
# Design: key: a “−” symbol means the monomer was found already polymerized/degraded; “+” means monomer was found to be stable
# Description: Absence of HCl in the purified NCAs was confirmed by means of a silver nitrate solution. The presence of HCl can be identified by the precipitation of silver chloride when some drops of a solution 1M of AgNO3 are added to a solution of the monomer. The purity of the NCA is the main criteria to ensure long term storage. This issue was corroborated with stability studies of the NCA under different storage conditions.
smiles,measurement,setting,value
"O=C(CCC1NC(=O)OC1=O)OCc1ccccc1 (centres unmarked) [NCA, Benzyl 3-(2,5-dioxooxazol-4-il)propanoate]",Stability of NCA on storage,"4° C., 5 d",+
same,Stability of NCA on storage,"4° C., 6 d",+
same,Stability of NCA on storage,"4° C., 8d",−
same,Stability of NCA on storage,"4° C., 10 d",−
same,Stability of NCA on storage,"4° C., 11 d",−
same,Stability of NCA on storage,"4° C., 20 d",−
same,Stability of NCA on storage,"4° C., 50 d",−
same,Stability of NCA on storage,"4° C./Ar, 5 d",+
same,Stability of NCA on storage,"4° C./Ar, 6 d",+
same,Stability of NCA on storage,"4° C./Ar, 7 d",+
same,Stability of NCA on storage,"4° C./Ar, 8d",+
same,Stability of NCA on storage,"4° C./Ar, 10 d",+
same,Stability of NCA on storage,"4° C./Ar, 11 d",+
same,Stability of NCA on storage,"R.T, 5 d",−
same,Stability of NCA on storage,"R.T, 6 d",−
same,Stability of NCA on storage,"R.T, 7 d",−
same,Stability of NCA on storage,"R.T, 8d",−
same,Stability of NCA on storage,"R.T, 10 d",−
same,Stability of NCA on storage,"R.T, 11 d",−
same,Stability of NCA on storage,"R.T, 20 d",−
same,Stability of NCA on storage,"R.T, 50 d",−
same,Stability of NCA on storage,"R.T/Ar, 6 d",−
same,Stability of NCA on storage,"R.T/Ar, 7 d",−
same,Stability of NCA on storage,"R.T/Ar, 8d",−
same,Stability of NCA on storage,"R.T/Ar, 10 d",−
same,Stability of NCA on storage,"R.T/Ar, 11 d",−
same,Stability of NCA on storage,"R.T/Ar, 20 d",−
same,Stability of NCA on storage,"R.T/Ar, 50 d",−
same,Stability of NCA on storage,"−23° C., 5 d",+
same,Stability of NCA on storage,"−23° C., 6 d",+
same,Stability of NCA on storage,"−23° C., 7 d",+
same,Stability of NCA on storage,"−23° C., 8d",+
same,Stability of NCA on storage,"−23° C., 10 d",+
same,Stability of NCA on storage,"−23° C., 11 d",+
same,Stability of NCA on storage,"−23° C., 20 d",+
same,Stability of NCA on storage,"−23° C., 50 d",+
same,Stability of NCA on storage,"−23° C./Ar, 5 d",+
same,Stability of NCA on storage,"−23° C./Ar, 6 d",+
same,Stability of NCA on storage,"−23° C./Ar, 7 d",+
same,Stability of NCA on storage,"−23° C./Ar, 8d",+
same,Stability of NCA on storage,"−23° C./Ar, 10 d",+
same,Stability of NCA on storage,"−23° C./Ar, 11 d",+
same,Stability of NCA on storage,"−23° C./Ar, 20 d",+
same,Stability of NCA on storage,"−23° C./Ar, 50 d",+
